Data from publication PMC10215143, “D- and N-Methyl Amino Acids for Modulating the Therapeutic Properties of Antimicrobial Peptides and Lipopeptides” (Antibiotics, 2023).
Converted amounts (≈) assume the structure as drawn. Like-named read-outs stand apart in the source and are kept apart here. Where a SMILES comes first, the peptide text is derived from it. Where no end group is shown, it is not given here. [ ]: non-standard residue; d: D form. The star is where a group is joined. NMeK = CN[C@@H](CCCCN)C(=O)O; Decanoyl = CCCCCCCCCC(=O)*

What was measured:
[1] = Critical micelle concentration by conductimetry in Milli-Q water; format: physicochemical; settings: 25 °C
Experimental: On the other hand, acylation confers that the peptide has capacity to self-assemble into nanostructures, resulting in a surfactant-like structure, which may affect the extent of peptide insertion and disruption of bacterial membrane integrity. In this work, the CMC of the lipopeptides was determined by conductimetry in Milli-Q water. All the lipopeptides adopted a micellar assembly with CMC values ranging from 2.0 to 5.7 mM (Table 1). […] This effect appeared to be more important when substitution by an N-methyl amino acid was performed on amino acids located on the non-polar face of the amphipathic helix (CMC values of C10:0-A2(8-NMePhe) = 2.01 mM). For all the lipopeptides, the CMC values remained above the MIC values, which could indicate that these molecules interact with the cell membrane as monomers and, consequently, that this property would not be necessary for antimicrobial activity. This notion is in concordance with reports in the literature on short cationic lipopeptides.
A lipopeptide solution was prepared in Milli Q water, and the specific conductivity of each lipopeptide solution, in a concentration ranging from 0.06 to 18 mg/mL, was measured using a drop conductivity meter (HORIBA, Kyoto, Japan), at 25 °C. Conductivity values were plotted vs. lipopeptide concentration (mS × cm^−1 vs. mg/mL), and the CMC was graphically determined.

E. coli ATCC 35218 = format: cell-based, Escherichia coli; settings: ATCC 35218, 24 h
Experimental: (§1) The test was conducted in triplicate.

P. aeruginosa ATCC 27853 = format: cell-based, Pseudomonas aeruginosa; settings: ATCC 27853, 24 h
Experimental: as §1

S. aureus ATCC 25923 = format: cell-based, Staphylococcus aureus; settings: ATCC 25923, 24 h
Experimental: as §1

E. faecalis ATCC 29212 = format: cell-based, Enterococcus faecalis; settings: ATCC 29212, 24 h
Experimental: as §1

C. albicans PEEC 2 = format: cell-based, Candida albicans; settings: PEEC 2, 24 h
Experimental: (§2) Each inoculum was taken and the cellular concentration was adjusted to 2 × 10^3 CFU/mL in Sabouraud Dextrose Broth (SDB) (Biokar Diagnostics, Cedex, France). Next, 50 µL of these inocula was added to 50 µL of peptide solution in serial 2-fold dilutions. […] […] The test was conducted in triplicate.

C. tropicalis DBFIQ 3 = format: cell-based, Candida tropicalis; settings: DBFIQ 3, 24 h
Experimental: as §2

Gram (+) bacteria = settings: for MIC Average Bacteria Gram (+): average over Gram (+) strains; for TI Bacteria Gram (+), HC50/MIC average: first value of the cell, a single value holds for HC50 and IC50 (400 µM used); for TI Bacteria Gram (+), IC50/MIC average: second value of the cell, HeLa IC50 based
Experimental: (§3) The MIC against bacterial strains was determined by the modified broth microtiter dilution method, following the procedures proposed by R.E.W. Hancock Laboratory for testing antimicrobial peptides. The target strains Escherichia coli ATCC 35218, Pseudomonas aeruginosa ATCC 27853, Enterococcus faecalis ATCC 29212, and Staphylococcus aureus ATCC 25923 belong to the American Type Culture Collection (ATCC). The Methicillin-Resistant Staphylococcus aureus BSF FBCB1313 strain (MRSA) was provided by the Clinical Bacteriology Section of FBCB-UNL. All strains were activated by culture for 24 h at 37 °C in Mueller-Hinton Broth (MHB) (Biokar Diagnostics, Cedex, France). Each inoculum was taken and adjusted to a cellular concentration of 5 × 10^5 colony-forming units (CFU)/mL in diluted MHB. All the peptides were dissolved in bovine serum albumin buffer with the addition of 0.01% acetic acid; 100 µL of each inoculum was added to 11 µL of peptide solution in serial 2-fold dilutions and were incubated for 18–24 h at 37 °C. The MIC was the lowest peptide concentration that inhibited visible growth of each bacterial strain. The test was conducted in triplicate.
(§4) The TI is defined as the relationship between the concentration that caused 50% of hemolysis (HC50) or a 50% reduction in HeLa cell viability and the MIC. Thus, higher TI values indicate greater antimicrobial specificity. […] The average MIC for each peptide against different microorganism groups was used to calculate the TI value.

Gram (−) bacteria = settings: for MIC Average Bacteria Gram (−): average over Gram (−) strains; for TI Bacteria Gram (−), HC50/MIC average: first value of the cell, a single value holds for HC50 and IC50 (400 µM used); for TI Bacteria Gram (−), IC50/MIC average: second value of the cell, HeLa IC50 based
Experimental: as §3, §4

Yeast [2] = settings: for MIC Average Yeast: 24 h; for TI Yeast, HC50/MIC average: first value of the cell, a single value holds for HC50 and IC50 (400 µM used); for TI Yeast, IC50/MIC average: second value of the cell, HeLa IC50 based
Experimental: Each inoculum was taken and the cellular concentration was adjusted to 2 × 10^3 CFU/mL in Sabouraud Dextrose Broth (SDB) (Biokar Diagnostics, Cedex, France). Next, 50 µL of these inocula was added to 50 µL of peptide solution in serial 2-fold dilutions. […] The MIC was considered the lowest peptide concentration that inhibited visible growth of each yeast strain. The test was conducted in triplicate.
as §4

Hemolysis assay = format: cell-based, human; settings: human, erythrocytes (red blood cells); at higher concentrations (400 μM)
Experimental: (§5) Hemolytic activity was determined using red blood cells and the hemoglobin released was measured at 405 nm. The percentage of hemolysis corresponding to the synthetic compounds is shown in Figure 1 while the HC50 values are provided in Table 3. […] Substitutions by N-methyl and D-amino acids reduced the hemolytic activity of the peptides and lipopeptides. […] For all the peptides and most of the lipopeptides, the HC50 values exceeded 400 μM. Indeed, the HC50 values were lower only for C10:0-A2(9-NMeLys) and C10:0-A2, which were around 300 and 200 μM, respectively.
(§6) Erythrocyte lysis was determined using the following previously optimized protocols. Human erythrocytes from a healthy voluntary donor were isolated by centrifugation (3000 rpm for 10 min) after washing three times with Physiological Solution (PS). Erythrocyte solutions were prepared at a concentration of 0.4% (v/v) in PS. Test tubes containing 200 µL of erythrocyte solution were incubated at 37 °C for 60 min with 200 µL of peptide solution at concentrations ranging from 6.25 to 400 µM. After centrifugation at 3000 rpm for 5 min, supernatant absorbance was measured at 405 nm. Lysis induced by 1% Triton X-100 was taken as a 100% reference value.

Human erythrocytes = assay: Hemolysis assay; format: cell-based; settings: human erythrocytes 0.4% (v/v), 37 °C, 60 min, 6.25 to 400 µM
Experimental: as §5, §6

HeLa cells = settings: for IC50: 24 h
Experimental: We assessed the cytotoxicity of the compounds synthesized using HeLa cells.
The 3–4,5-dimethylthiazol-2,5-biphenyl tetrazolium bromide (MTT) cell viability assay was used to assess the cytotoxic activity of synthetic compounds against the human HeLa line. HeLa cells were seeded in 96-well plates at 1 × 10^5 cells/well, in which the peptide solution was added at different concentrations (3.125–400 μM) for 24 h of incubation. Next, MTT reagent (Sigma-Aldrich, St. Louis, MO, USA) was added, and the cells were incubated for 2 h. Then, 100 μL of dimethylsulfoxide (DMSO) was added to each well to dissolve formazan crystals, and the plates were read at 595 nm.

[3] = tested on: S. aureus RM * SA1 (Methicillin-resistant Staphylococcus aureus); settings: S. aureus RM * SA1 (MRSA)
Yeast [4] = settings: cited from earlier work
in vitro = settings: human, 50% (v/v) human serum in phosphate buffer, pH 7.2
Experimental: A 50% (v/v) human serum solution in phosphate buffer (pH: 7.2) was added to the peptide solution (concentration: 2 mg/mL) and incubated for 8 h at 37 °C. Aliquots were taken at different time points (0, 30, 60, 120, 240, 360, and 480 min) and serum proteins were immediately precipitated with a mixture of ACN-water-TFA (89:10:1). They were kept at 4 °C for 45 min and then centrifuged for 15 min at 10,000 rpm. The supernatants were then analyzed by HPLC-RP using a C18 analytical column (Beckman, Indianapolis, IN, USA). A linear gradient from 5% to 50% of ACN in H2O containing 0.1% TFA was used, at a flow rate of 0.8 mL/min. Absorbance was measured at 220 nm. […] The test was conducted in duplicate.

[5] = at 200 μM; cited from earlier work

Compound | CMC [1] | MIC (E. coli ATCC 35218) | MIC (P. aeruginosa ATCC 27853) | MIC (S. aureus ATCC 25923) | MIC (E. faecalis ATCC 29212) | MIC (C. albicans PEEC 2) | MIC (C. tropicalis DBFIQ 3) | MIC Average Bacteria Gram (+) (Gram (+) bacteria) | TI Bacteria Gram (+), HC50/MIC average (Gram (+) bacteria) | TI Bacteria Gram (+), IC50/MIC average (Gram (+) bacteria) | MIC Average Bacteria Gram (−) (Gram (−) bacteria) | TI Bacteria Gram (−), HC50/MIC average (Gram (−) bacteria) | TI Bacteria Gram (−), IC50/MIC average (Gram (−) bacteria) | MIC Average Yeast (Yeast [2]) | TI Yeast, HC50/MIC average (Yeast [2]) | TI Yeast, IC50/MIC average (Yeast [2]) | hemolysis at 60 min, 400 µM (Hemolysis assay) | HC50 ± SD (Human erythrocytes) | IC50 (HeLa cells) | MIC [3] | also measured
CCCCCCCCCC(=O)N[C@H](C(=O)N[C@@H](CCCCN)C(=O)N[C@@H](CCC(N)=O)C(=O)N[C@H](C(=O)N[C@@H](CCCCN)C(=O)N[C@@H](CCCCN)C(=O)N[C@@H](CC(C)C)C(=O)N[C@@H](Cc1ccccc1)C(=O)N[C@@H](CCCCN)C(=O)N[C@@H](CCCCN)C(N)=O)C(C)C)[C@@H](C)CC [C10:0-A2, C10:0-IKQVKKLFKK-NH2] (Decanoyl-IKQVKKLFKK-NH2) | 5.74 mM | 1.4 µM (≈ 1.98 µg/mL) | 1.4 µM (≈ 1.98 µg/mL) | 1.4 µM (≈ 1.98 µg/mL) | 1.4 µM (≈ 1.98 µg/mL) | 90.6 µM (≈ 128 µg/mL) | 90.6 µM (≈ 128 µg/mL) | 1.9 µM (≈ 2.68 µg/mL) | 106.8 | 17.2 | 1.4 µM (≈ 1.98 µg/mL) | 144.9 | 23.3 | 90.6 µM (≈ 128 µg/mL) | 2.2 | 0.4 | ~45% | 202.9 ± 17.5 µM | 32.6 ± 2.49 µM | 2.8 µM (≈ 3.96 µg/mL) | reduction of HeLa viability (HeLa cells; HeLa cells, MTT): more than 60%; MIC (Yeast [4]; yeast): 90.6 µM (≈ 128 µg/mL); remaining at 1 h (in vitro): ~20%; hemolysis [5]: around 50%
CCCCCCCCCC(=O)N[C@H](C(=O)N[C@@H](CCCCN)C(=O)N[C@@H](CCC(N)=O)C(=O)N[C@H](C(=O)N(C)[C@@H](CCCCN)C(=O)N[C@@H](CCCCN)C(=O)N[C@@H](CC(C)C)C(=O)N[C@@H](Cc1ccccc1)C(=O)N[C@@H](CCCCN)C(=O)N[C@@H](CCCCN)C(N)=O)C(C)C)[C@@H](C)CC [C10:0-A2(5-NMeLys), C10:0-IKQV(NMe-K)KLFKK-NH2] (Decanoyl-IKQV[NMeK]KLFKK-NH2) | 3.73 mM | 2.8 µM (≈ 4 µg/mL) | 5.6 µM (≈ 7.99 µg/mL) | 2.8 µM (≈ 4 µg/mL) | 11.2 µM (≈ 16 µg/mL) | 179.5 µM (≈ 256 µg/mL) | 179.5 µM (≈ 256 µg/mL) | 6.5 µM (≈ 9.28 µg/mL) | 61.5 |  | 4.2 µM (≈ 5.99 µg/mL) | 95.2 |  | 179.5 µM (≈ 256 µg/mL) | 2.2 |  |  | >400 µM | > 400 µM | 5.6 µM (≈ 7.99 µg/mL) | 
KLFKKLFKKLFK-NH2 [TA4, KLFKKLFKKLFK-NH2] |  | 5.1 µM | 2.6 µM | 2.6 µM | 5.1 µM | 40.8 µM | 40.8 µM | 6.0 µM | 66.7 | 7.7 | 3.9 µM | 102.6 | 11.9 | 40.8 µM | 9.8 | 1.1 | ~65% | >400 µM | 46.4 ± 10.1 µM | 10.2 µM | reduction of HeLa viability (HeLa cells; HeLa cells, MTT): more than 60%; IC50 (HeLa cells; read-out: IC50 ± SD, HeLa cells, MTT, 3.125–400 μM): 46 µM; MIC (Yeast [4]; against yeast): 40.8 µM; remaining at 1 h (in vitro): ~40%; hemolysis [5]: around 40%
CCCCCCCCCC(=O)N[C@H](C(=O)N[C@@H](CCCCN)C(=O)N[C@@H](CCC(N)=O)C(=O)N[C@H](C(=O)N[C@@H](CCCCN)C(=O)N(C)[C@@H](CCCCN)C(=O)N[C@@H](CC(C)C)C(=O)N[C@@H](Cc1ccccc1)C(=O)N[C@@H](CCCCN)C(=O)N[C@@H](CCCCN)C(N)=O)C(C)C)[C@@H](C)CC [C10:0-A2(6-NMeLys), C10:0-IKQVK(NMe-K)LFKK-NH2] (Decanoyl-IKQVK[NMeK]LFKK-NH2) | 3.63 mM | 1.4 µM (≈ 2 µg/mL) | 0.7 µM (≈ 0.999 µg/mL) | 1.4 µM (≈ 2 µg/mL) | 5.6 µM (≈ 7.99 µg/mL) | 44.9 µM (≈ 64.1 µg/mL) | 89.7 µM (≈ 128 µg/mL) | 4.2 µM (≈ 5.99 µg/mL) | 95.2 |  | 1.1 µM (≈ 1.57 µg/mL) | 363.6 |  | 67.3 µM (≈ 96 µg/mL) | 5.9 |  |  | >400 µM | 400 ± 29 µM | 5.6 µM (≈ 7.99 µg/mL) | 
